Consider twelve compounds from US10933056B2, “3-(1H-pyrazol-4-yl)pyridine allosteric modulators of the M4 muscarinic acetylcholine receptor” (Merck Sharp & Dohme Corp., priority 2015, dated 2021).

The assay addresses T1, human M4 muscarinic acetylcholine receptor (Homo sapiens, UniProt P08173).
T1 construct: expressed in transfected cells; host or cells: CHO-K1
T1 sequence (P08173 1-479): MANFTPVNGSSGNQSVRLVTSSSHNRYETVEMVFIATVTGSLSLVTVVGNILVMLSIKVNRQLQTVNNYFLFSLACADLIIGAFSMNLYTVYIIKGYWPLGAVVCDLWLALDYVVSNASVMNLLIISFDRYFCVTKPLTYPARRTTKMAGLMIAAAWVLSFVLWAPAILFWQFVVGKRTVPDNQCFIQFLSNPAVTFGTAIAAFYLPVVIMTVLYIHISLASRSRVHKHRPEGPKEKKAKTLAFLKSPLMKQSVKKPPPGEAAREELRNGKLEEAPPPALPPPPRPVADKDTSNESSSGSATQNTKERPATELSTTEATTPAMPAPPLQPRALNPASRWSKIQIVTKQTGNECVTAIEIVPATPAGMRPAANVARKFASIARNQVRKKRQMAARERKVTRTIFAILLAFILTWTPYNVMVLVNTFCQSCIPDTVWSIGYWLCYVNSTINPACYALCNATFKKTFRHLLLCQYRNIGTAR
The experiment in a line: human FLIPR-based M4 PAM assay (calcium mobilization in CHO-K1 cells with human M4 receptor and Gαqi5). It is filed as cell-based. Particulars: inflection point of dose response curve, acetylcholine at 20% of maximum response, FLIPR Tetra, read-out: M4 PAM IP. In a few lines:
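CHO-K1 cells stably expressing human M4 and chimeric Gαqi5 were dye-loaded ~1 h at 37° C. Test compound was added with fluorescence recorded 4 min, then acetylcholine at EC20 (sometimes a further EC70 addition) with reading 3.5 min. Value is the inflection point of a 4-parameter logistic fit.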

In the case of `CC#CCN1Cc2ncc(-c3nc4c(cc3-c3cnn(CC5(C)CCCC5)c3)CCC4)cc2C1=O` [Example 119, 6-(but-2-yn-1-yl)-3-(3-(1-((1-methylcyclopentyl)methyl)-1H-pyrazol-4-yl)-6,7-dihydro-5H-cyclopenta[b]pyridin-2-yl)-6,7-dihydro-5H-pyrrolo[3,4-b]pyridin-5-one], the EC50 worked out at 0.071 µM.

As for `C#CCN1Cc2ncc(-c3nc(C#N)ccc3-c3cnn(CC4(C)CCCC4)c3)cc2C1=O` [Example 120, 5-(1-((1-methylcyclopentyl)methyl)-1H-pyrazol-4-yl)-6-(5-oxo-6-(prop-2-yn-1-yl)-6,7-dihydro-5H-pyrrolo[3,4-b]pyridin-3-yl)picolinonitrile], the EC50 was found to be 0.026 µM.

Take `C#CCN1Cc2ccc(-c3nc(C#N)ccc3-c3cnn(CC4(C)CCCC4)c3)cc2C1=O` [Example 120A]: the EC50 is 0.017 µM.

For the compound `CC(C)N1Cc2ncc(-c3nc(C#N)ccc3-c3cnn(CC4(C)CCCC4)c3)cc2C1=O` [Example 121, 6-(6-isopropyl-5-oxo-6,7-dihydro-5H-pyrrolo[3,4-b]pyridin-3-yl)-5-(1-((1-methylcyclopentyl)methyl)-1H-pyrazol-4-yl)picolinonitrile], the EC50 was found to be 0.134 µM.

Turning to `CC#CCN1Cc2ncc(-c3nc(C#N)ccc3-c3cnn(CC4(C)CCCC4)c3)cc2C1=O` [Example 122, 6-(6-(but-2-yn-1-yl)-5-oxo-6,7-dihydro-5H-pyrrolo[3,4-b]pyridin-3-yl)-5-(1-((1-methylcyclopentyl)methyl)-1H-pyrazol-4-yl)picolinonitrile], the EC50 is 0.041 µM.

`C#CCN1Cc2ccc(-c3nc4c(cc3-c3cnn(CC5(C)CCCC5)c3)CCC4)cc2C1=O` [Example 123, 6-(3-(1-((1-methylcyclopentyl)methyl)-1H-pyrazol-4-yl)-6,7-dihydro-5H-cyclopenta[b]pyridin-2-yl)-2-(prop-2-yn-1-yl)isoindolin-1-one]: the EC50 is 0.048 µM.

With `CN1Cc2ccc(-c3nc4c(cc3-c3cnn(CC5(C)CCCC5)c3)CCC4=O)cc2C1=O` [Example 124, 2-(2-Methyl-3-oxoisoindolin-5-yl)-3-(1-((1-methylcyclopentyl)methyl)-1H-pyrazol-4-yl)-5,6-dihydro-7H-cyclopenta[b]pyridin-7-one], the EC50 turned out to be 0.03 µM.

`CN1Cc2ccc(-c3nc(C#N)c(Cl)cc3-c3cnn(CC4(C)CCCC4)c3)cc2C1=O` [Example 125, 3-Chloro-6-(2-methyl-3-oxoisoindolin-5-yl)-5-(1-((1-methylcyclopentyl)methyl)-1H-pyrazol-4-yl)picolinonitrile]: the EC50 turned out to be 0.026 µM.

`Cc1cc(F)c(-c2cnn(CC3(C)CCCC3)c2)c(-c2ccc3c(c2)C(=O)N(C)C3)n1` [Example 126, 6-(4-fluoro-6-methyl-3-(1-((1-methylcyclopentyl)methyl)-1H-pyrazol-4-yl)pyridin-2-yl)-2-methylisoindolin-1-one]: the EC50 was determined as 0.071 µM.

Regarding `CN1Cc2ccc(-c3nc(F)c(F)cc3-c3cnn(CC4(C)CCCC4)c3)cc2C1=O` [Example 127, 6-(5,6-Difluoro-3-(1-((1-methylcyclopentyl)methyl)-1H-pyrazol-4-yl)pyridin-2-yl)-2-methylisoindolin-1-one], the EC50 was 0.09 µM.

On to `C#Cc1ccc(-c2cnn(CC3(C)CCCC3)c2)c(-c2cnc3c(c2)C(=O)N(CC2CC2)C3)n1` [Example 128, 6-(Cyclopropylmethyl)-3-(6-ethynyl-3-(1-((1-methylcyclopentyl)methyl)-1H-pyrazol-4-yl)pyridin-2-yl)-6,7-dihydro-5H-pyrrolo[3,4-b]pyridin-5-one], for which the EC50 was 0.062 µM.

As for `CC1(Cn2cc(-c3ccc(C#N)nc3-c3cnc4c(c3)C(=O)N(CCO)C4)cn2)CCCC1` [Example 129, 6-(6-(2-Hydroxyethyl)-5-oxo-6,7-dihydro-5H-pyrrolo[3,4-b]pyridin-3-yl)-5-(1-((1-methylcyclopentyl)methyl)-1H-pyrazol-4-yl)picolinonitrile], the EC50 was 0.039 µM.
